Test results reported in PMC5564600 (Oncotarget, 2017).

Key:
Experiment in all cases: biochemical
Assay type in all cases: binding
[1] = target: T1, panel of 442 kinases (Homo sapiens, UniProt Q06418); settings: kinase TYRO3; for remaining activity at 1 µM: read-out: TYRO3 (% of control at 1 µM)
T1 construct: purchased Ambit Biosciences (scanMAXX KINOMEscan)
T1 sequence (Q06418 41-890): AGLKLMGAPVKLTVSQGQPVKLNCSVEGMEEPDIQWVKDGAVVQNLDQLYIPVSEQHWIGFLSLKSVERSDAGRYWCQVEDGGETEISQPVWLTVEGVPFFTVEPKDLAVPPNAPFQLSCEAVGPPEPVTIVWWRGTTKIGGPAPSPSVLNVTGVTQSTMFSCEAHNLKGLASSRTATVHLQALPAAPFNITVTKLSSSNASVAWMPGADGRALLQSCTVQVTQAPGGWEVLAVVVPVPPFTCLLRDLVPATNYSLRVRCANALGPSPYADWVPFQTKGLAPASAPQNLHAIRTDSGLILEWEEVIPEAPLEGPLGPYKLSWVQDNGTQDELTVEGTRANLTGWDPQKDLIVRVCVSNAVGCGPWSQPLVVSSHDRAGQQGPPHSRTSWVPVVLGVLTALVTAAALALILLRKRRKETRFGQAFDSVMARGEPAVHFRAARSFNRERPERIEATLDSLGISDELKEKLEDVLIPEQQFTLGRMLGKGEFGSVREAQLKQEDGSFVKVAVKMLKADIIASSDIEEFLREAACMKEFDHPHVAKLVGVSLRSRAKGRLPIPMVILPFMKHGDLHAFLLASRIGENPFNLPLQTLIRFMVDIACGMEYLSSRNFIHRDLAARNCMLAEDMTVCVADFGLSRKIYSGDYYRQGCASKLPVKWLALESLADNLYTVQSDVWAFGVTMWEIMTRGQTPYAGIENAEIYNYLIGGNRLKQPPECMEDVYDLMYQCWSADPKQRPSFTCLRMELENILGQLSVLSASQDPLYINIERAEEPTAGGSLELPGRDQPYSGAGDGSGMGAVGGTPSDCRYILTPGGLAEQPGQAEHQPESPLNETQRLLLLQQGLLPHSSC

[2] = target: T2, panel of 442 kinases (Homo sapiens, UniProt O43353); settings: kinase RIPK2; for remaining activity at 1 µM: read-out: RIPK2 (% of control at 1 µM)
T2 construct: purchased Ambit Biosciences (scanMAXX KINOMEscan)

[3] = target: T3, panel of 442 kinases (Homo sapiens, UniProt O95747); settings: kinase OSR1; for remaining activity at 1 µM: read-out: % of control at 1 µM
T3 construct: purchased Ambit Biosciences (scanMAXX KINOMEscan)

[4] = target: T4, panel of 442 kinases (Homo sapiens, UniProt P00533, L858R); settings: EGFR(L858R); for remaining activity at 1 µM: read-out: % of control at 1 µM
T4 construct: purchased Ambit Biosciences (scanMAXX KINOMEscan)

[5] = target: T5, panel of 442 kinases (Homo sapiens, UniProt Q9NYY3); settings: kinase PLK2; for remaining activity at 1 µM: read-out: PLK2 (% of control at 1 µM)
T5 construct: purchased Ambit Biosciences (scanMAXX KINOMEscan)

[6] = target: T6, panel of 442 kinases (Homo sapiens, UniProt P53667); settings: kinase LIMK1; for remaining activity at 1 µM: read-out: % of control at 1 µM
T6 construct: purchased Ambit Biosciences (scanMAXX KINOMEscan)

[7] = target: T7, panel of 442 kinases (Homo sapiens, UniProt Q59H18); settings: kinase TNNI3K; for remaining activity at 1 µM: read-out: TNNI3K (% of control at 1 µM)
T7 construct: purchased Ambit Biosciences (scanMAXX KINOMEscan)
T7 sequence (Q59H18 1-835): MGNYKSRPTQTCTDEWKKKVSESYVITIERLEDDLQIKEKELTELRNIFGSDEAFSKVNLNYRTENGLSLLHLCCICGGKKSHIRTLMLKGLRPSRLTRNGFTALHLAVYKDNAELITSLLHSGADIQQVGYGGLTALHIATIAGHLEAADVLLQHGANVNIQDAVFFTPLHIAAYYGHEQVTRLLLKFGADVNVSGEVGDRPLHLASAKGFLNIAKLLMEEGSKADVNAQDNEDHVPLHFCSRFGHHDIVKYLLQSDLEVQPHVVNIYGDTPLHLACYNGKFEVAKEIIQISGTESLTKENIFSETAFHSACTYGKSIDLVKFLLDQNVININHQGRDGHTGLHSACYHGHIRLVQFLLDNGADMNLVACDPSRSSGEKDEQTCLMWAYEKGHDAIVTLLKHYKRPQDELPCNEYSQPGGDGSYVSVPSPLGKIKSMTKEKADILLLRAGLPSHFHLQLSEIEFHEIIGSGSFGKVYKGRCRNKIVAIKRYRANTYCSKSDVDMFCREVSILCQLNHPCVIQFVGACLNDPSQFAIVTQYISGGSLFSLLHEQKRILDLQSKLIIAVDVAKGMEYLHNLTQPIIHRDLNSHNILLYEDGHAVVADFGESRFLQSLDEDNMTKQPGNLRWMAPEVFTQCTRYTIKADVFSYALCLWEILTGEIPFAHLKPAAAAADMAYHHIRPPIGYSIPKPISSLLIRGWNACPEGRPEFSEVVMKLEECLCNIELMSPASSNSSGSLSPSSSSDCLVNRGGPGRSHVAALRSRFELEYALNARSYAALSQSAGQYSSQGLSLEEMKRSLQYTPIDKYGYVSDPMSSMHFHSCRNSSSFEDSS

[8] = target: T8, panel of 442 kinases (Homo sapiens, UniProt Q16620); settings: kinase TRKB; for remaining activity at 1 µM: read-out: TRKB (% of control at 1 µM)
T8 construct: purchased Ambit Biosciences (scanMAXX KINOMEscan)

[9] = target: T9, panel of 442 kinases (Homo sapiens, UniProt Q6PHR2); settings: kinase ULK3; for remaining activity at 1 µM: read-out: ULK3 (% of control at 1 µM)
T9 construct: purchased Ambit Biosciences (scanMAXX KINOMEscan)
T9 sequence (Q6PHR2 1-472): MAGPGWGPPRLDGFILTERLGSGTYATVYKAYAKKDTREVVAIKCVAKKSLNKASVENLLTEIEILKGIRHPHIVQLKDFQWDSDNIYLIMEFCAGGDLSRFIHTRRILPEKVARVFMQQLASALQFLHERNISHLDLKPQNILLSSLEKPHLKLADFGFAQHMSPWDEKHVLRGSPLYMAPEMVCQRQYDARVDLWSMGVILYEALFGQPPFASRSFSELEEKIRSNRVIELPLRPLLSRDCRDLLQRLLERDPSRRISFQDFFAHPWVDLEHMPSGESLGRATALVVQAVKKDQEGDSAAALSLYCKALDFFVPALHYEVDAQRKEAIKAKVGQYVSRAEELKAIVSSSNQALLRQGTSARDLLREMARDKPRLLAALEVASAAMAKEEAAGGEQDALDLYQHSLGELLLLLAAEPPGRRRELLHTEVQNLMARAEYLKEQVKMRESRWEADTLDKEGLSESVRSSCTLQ

[10] = target: T10, panel of 442 kinases (Homo sapiens, UniProt Q02750); settings: kinase MEK1; for remaining activity at 1 µM: read-out: % of control at 1 µM
T10 construct: purchased Ambit Biosciences (scanMAXX KINOMEscan)

[11] = 10 µM, read-out: % of control at 10 µM

T2 sequence (O43353 whole entry): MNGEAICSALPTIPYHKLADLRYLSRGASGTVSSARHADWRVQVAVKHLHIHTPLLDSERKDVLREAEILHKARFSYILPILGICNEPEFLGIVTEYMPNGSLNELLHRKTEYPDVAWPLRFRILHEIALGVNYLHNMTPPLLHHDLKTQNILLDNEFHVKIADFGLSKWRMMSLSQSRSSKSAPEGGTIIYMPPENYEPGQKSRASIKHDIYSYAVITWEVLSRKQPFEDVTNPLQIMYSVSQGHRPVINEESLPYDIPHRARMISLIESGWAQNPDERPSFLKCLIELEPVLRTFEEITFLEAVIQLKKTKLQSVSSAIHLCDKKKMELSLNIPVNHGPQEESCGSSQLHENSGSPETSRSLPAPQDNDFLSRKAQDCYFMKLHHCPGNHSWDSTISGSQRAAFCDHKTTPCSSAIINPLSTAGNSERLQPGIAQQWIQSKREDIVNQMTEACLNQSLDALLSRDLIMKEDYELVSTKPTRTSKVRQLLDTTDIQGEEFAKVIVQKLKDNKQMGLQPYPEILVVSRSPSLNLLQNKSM
T5 sequence (Q9NYY3 whole entry): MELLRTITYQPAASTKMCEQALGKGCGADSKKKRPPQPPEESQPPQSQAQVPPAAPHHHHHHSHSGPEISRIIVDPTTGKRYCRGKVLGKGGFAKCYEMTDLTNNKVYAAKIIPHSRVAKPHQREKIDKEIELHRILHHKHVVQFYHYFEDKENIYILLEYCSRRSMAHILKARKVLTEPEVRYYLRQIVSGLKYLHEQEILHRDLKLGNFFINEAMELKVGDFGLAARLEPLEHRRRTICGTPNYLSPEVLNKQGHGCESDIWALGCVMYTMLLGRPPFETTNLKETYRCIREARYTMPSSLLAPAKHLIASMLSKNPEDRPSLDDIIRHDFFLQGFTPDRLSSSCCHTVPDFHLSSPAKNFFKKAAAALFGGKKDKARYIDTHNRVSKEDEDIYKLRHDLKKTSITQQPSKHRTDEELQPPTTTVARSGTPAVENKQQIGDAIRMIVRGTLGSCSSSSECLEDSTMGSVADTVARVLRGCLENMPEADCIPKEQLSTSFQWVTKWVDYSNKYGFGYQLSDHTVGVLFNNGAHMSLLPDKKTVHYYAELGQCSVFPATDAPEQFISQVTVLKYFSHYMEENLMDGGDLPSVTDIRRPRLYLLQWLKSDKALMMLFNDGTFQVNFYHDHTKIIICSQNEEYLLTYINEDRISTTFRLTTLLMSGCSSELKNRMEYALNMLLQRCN
T8 sequence (Q16620 32-822): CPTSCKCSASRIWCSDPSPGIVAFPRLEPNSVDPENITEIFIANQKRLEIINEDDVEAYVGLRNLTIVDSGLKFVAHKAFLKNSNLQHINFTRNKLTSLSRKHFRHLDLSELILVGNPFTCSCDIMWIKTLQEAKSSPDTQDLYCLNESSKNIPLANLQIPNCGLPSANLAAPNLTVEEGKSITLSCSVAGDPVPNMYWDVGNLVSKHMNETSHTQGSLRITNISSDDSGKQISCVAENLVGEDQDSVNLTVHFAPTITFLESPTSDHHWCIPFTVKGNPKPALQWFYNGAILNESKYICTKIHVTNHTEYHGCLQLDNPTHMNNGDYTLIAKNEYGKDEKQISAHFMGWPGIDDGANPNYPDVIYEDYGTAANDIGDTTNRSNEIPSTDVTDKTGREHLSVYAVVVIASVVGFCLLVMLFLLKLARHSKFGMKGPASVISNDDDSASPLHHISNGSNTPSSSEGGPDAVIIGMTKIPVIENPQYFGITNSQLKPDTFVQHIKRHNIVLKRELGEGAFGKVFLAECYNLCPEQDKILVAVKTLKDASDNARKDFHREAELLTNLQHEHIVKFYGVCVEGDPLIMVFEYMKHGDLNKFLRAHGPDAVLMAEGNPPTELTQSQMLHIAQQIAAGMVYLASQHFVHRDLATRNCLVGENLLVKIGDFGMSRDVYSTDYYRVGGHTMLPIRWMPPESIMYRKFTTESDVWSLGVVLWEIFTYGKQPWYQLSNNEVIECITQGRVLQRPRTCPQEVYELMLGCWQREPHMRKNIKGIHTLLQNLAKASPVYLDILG
T3 sequence (O95747 whole entry): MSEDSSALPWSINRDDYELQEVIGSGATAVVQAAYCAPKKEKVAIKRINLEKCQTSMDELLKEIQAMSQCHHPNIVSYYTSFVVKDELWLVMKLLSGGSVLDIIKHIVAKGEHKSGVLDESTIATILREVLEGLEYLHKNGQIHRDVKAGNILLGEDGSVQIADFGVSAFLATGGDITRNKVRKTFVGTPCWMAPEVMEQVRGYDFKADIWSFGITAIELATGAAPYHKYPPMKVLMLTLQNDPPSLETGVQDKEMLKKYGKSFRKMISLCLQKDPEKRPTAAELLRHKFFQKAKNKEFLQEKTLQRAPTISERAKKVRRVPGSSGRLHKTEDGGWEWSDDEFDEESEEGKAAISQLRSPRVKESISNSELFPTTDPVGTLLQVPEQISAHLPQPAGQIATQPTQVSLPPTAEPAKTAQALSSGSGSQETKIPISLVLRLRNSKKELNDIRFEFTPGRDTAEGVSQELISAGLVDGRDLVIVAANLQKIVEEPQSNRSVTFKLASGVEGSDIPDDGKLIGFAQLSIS
T10 sequence (Q02750 whole entry): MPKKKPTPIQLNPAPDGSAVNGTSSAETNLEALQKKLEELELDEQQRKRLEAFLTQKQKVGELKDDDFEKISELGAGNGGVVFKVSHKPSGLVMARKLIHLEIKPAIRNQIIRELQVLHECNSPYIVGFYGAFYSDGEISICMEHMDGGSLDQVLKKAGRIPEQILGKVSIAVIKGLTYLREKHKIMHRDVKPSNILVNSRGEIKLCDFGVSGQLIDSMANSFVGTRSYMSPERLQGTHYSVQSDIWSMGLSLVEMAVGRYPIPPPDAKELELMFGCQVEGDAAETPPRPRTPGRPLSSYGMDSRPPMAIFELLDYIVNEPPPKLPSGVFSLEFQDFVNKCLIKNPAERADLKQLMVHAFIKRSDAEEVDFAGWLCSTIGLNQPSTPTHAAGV
T6 sequence (P53667 whole entry): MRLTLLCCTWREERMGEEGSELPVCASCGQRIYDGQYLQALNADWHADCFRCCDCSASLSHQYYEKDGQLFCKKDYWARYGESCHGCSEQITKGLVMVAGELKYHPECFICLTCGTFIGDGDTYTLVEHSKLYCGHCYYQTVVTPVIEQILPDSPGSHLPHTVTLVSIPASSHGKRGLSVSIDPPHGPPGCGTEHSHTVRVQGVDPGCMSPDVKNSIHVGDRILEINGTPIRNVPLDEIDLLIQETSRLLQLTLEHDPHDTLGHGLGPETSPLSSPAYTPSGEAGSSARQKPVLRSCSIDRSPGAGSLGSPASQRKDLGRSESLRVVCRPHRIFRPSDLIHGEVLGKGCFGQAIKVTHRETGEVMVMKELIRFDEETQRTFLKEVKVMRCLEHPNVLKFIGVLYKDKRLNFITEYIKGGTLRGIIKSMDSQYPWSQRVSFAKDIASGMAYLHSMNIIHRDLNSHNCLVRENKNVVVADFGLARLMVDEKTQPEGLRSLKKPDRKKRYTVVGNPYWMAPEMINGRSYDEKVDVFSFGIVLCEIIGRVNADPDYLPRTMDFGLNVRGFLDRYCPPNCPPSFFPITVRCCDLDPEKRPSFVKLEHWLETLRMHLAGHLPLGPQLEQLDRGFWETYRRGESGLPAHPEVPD
T4 sequence (P00533 25-1210 L858R): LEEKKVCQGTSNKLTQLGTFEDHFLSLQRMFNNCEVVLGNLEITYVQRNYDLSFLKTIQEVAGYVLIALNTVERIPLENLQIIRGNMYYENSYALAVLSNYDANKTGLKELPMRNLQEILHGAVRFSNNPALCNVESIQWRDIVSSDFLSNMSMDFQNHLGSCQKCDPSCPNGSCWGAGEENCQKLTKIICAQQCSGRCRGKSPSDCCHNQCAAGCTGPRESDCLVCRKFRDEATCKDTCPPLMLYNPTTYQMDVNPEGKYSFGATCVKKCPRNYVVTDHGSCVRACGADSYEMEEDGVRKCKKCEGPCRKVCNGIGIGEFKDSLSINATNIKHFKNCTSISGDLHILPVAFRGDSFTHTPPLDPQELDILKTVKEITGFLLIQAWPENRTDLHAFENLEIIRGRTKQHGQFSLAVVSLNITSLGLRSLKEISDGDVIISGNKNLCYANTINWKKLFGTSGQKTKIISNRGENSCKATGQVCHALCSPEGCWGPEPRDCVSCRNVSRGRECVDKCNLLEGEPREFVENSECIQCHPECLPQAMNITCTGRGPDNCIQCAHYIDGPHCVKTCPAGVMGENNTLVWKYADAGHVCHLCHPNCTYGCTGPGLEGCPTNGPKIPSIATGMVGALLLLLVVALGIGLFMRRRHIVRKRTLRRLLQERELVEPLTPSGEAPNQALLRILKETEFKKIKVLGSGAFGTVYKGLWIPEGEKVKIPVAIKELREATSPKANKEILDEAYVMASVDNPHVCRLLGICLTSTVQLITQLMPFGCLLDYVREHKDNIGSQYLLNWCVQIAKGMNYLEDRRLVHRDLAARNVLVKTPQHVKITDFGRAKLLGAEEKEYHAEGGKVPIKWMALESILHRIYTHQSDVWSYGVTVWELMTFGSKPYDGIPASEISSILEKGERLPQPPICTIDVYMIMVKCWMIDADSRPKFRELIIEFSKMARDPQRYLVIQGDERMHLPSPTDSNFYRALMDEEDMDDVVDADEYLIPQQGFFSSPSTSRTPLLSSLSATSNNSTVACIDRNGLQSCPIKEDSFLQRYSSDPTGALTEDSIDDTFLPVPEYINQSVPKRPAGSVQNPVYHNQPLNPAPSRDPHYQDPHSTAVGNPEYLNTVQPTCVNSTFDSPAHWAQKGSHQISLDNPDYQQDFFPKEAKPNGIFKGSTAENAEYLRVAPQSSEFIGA

| Compound | remaining activity at 1 µM [1] | remaining activity at 10 µM ([1]; 10 µM, read-out: TYRO3 (% of control at 10 µM)) | remaining activity at 1 µM [2] | remaining activity at 10 µM ([2]; 10 µM, read-out: RIPK2 (% of control at 10 µM)) | remaining activity at 1 µM [3] | remaining activity at 10 µM [3, 11] | remaining activity at 1 µM [4] | remaining activity at 10 µM [4, 11] | remaining activity at 1 µM [5] | remaining activity at 10 µM ([5]; 10 µM, read-out: PLK2 (% of control at 10 µM)) | remaining activity at 1 µM [6] | remaining activity at 10 µM [6, 11] | remaining activity at 1 µM [7] | remaining activity at 10 µM ([7]; 10 µM, read-out: TNNI3K (% of control at 10 µM)) | remaining activity at 1 µM [8] | remaining activity at 10 µM ([8]; 10 µM, read-out: TRKB (% of control at 10 µM)) | remaining activity at 1 µM [9] | remaining activity at 10 µM ([9]; 10 µM, read-out: ULK3 (% of control at 10 µM)) | remaining activity at 1 µM [10] | remaining activity at 10 µM [10, 11] |
| --- | --- | --- | --- | --- | --- | --- | --- | --- | --- | --- | --- | --- | --- | --- | --- | --- | --- | --- | --- | --- |
| Nc1cc(C(F)(F)F)c(-c2cc(N3CCOCC3)nc(N3CCOCC3)n2)cn1 [Buparlisib] | 100% | 100% | 100% | 100% | 97% | 100% | 100% | 100% | 89% | 100% | 100% | 100% | 100% | 100% | 96% | 80% | 100% | 100% | 100% | 100% |
| Cn1c(=O)n(-c2ccc(C(C)(C)C#N)cc2)c2c3cc(-c4cnc5ccccc5c4)ccc3ncc21 [Dactolisib, 2-methyl-2-[4-(3-methyl-2-oxo-8-quinolin-3-yl-2,3-dihydroimidazo[4,5-c]quinolin-1-yl)-phenyl] propionitrile] | 100% |  | 37% |  | 91% |  |  |  | 100% |  | 99% |  | 76% |  | 61% |  | 100% |  | 94% |  |
| COc1ncc(-c2ccc3nccc(-c4ccnnc4)c3c2)cc1NS(=O)(=O)c1ccc(F)cc1F [Omipalisib] | 100% |  | 59% |  | 100% |  | 83% |  | 100% |  | 100% |  | 100% |  | 100% |  | 100% |  | 100% |  |
| FC(F)c1nc2ccccc2n1-c1nc(N2CCOCC2)nc(N2CCOCC2)n1 [ZSTK474, 2-(difluoromethyl)-1-[4,6-di(4-morpholinyl)-1,3,5-triazin-2-yl]-1H-benzimidazole] | 88% |  | 83% |  | 82% |  | 100% |  | 100% |  | 95% |  | 95% |  | 100% |  | 97% |  | 100% |  |
